# Where a SMILES comes first, the peptide text is derived from it. [ ]: non-standard residue; d: D form. The star is where a group is joined. βGlc = OC[C@H]1O[C@@H](*)[C@H](O)[C@@H](O)[C@@H]1O; Nva = CCC[C@H](N)C(=O)O
# Tests used:
# Assay type in all cases: cell-based
# [1] = target: T1, VPAC1 (Homo sapiens, UniProt P32241); assay: Assay of peptides at PAC and VPAC receptors: VPAC1 (EC50/EMax)
# T1 sequence (P32241 31-457): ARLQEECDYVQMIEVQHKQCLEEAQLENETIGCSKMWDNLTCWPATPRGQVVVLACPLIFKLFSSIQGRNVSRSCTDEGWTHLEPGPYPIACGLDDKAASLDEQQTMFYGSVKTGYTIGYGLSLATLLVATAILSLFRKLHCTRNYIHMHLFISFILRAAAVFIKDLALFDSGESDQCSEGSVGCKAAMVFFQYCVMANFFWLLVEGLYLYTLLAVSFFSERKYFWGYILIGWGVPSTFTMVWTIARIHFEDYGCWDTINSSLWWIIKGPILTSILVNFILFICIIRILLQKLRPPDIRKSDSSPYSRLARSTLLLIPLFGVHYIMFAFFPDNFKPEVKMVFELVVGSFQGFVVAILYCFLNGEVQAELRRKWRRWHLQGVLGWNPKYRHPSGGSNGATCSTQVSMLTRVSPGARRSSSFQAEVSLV
# [2] = target: T2, VPAC2 (Homo sapiens, UniProt P41587); assay: Assay of peptides at PAC and VPAC receptors: VPAC2 (EC50/EMax)
# T2 sequence (P41587 24-438): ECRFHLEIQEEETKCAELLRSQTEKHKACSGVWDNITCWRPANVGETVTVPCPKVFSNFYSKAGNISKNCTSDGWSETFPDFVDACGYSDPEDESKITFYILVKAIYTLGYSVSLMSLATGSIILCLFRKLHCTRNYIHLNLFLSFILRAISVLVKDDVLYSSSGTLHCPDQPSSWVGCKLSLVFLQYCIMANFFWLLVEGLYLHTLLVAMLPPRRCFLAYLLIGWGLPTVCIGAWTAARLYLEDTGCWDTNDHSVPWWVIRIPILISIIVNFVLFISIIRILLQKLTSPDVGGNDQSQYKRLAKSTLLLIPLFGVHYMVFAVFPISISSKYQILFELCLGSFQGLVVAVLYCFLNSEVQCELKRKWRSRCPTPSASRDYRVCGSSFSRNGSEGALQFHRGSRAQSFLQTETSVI
# [3] = target: T3, PAC1 (Homo sapiens, UniProt P41586); assay: Assay of peptides at PAC and VPAC receptors: PAC1 (EC50/EMax)
# T3 sequence (P41586 21-468): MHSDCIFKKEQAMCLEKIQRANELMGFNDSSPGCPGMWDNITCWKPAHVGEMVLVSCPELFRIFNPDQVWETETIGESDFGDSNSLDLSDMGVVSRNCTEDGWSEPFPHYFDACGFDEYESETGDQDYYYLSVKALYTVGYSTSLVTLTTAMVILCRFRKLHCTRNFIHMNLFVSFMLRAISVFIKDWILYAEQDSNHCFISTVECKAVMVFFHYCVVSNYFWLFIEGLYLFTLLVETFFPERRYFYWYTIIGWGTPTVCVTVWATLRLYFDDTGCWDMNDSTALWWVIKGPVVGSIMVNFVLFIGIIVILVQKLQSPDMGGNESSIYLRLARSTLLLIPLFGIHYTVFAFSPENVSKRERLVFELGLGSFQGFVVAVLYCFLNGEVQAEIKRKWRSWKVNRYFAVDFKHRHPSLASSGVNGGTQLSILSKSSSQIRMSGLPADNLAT
Emax [2],Emax [3],EC50 [1],VPAC1 EMax [1],EC50 [2],VPAC2 EMax [2],EC50 [3],PAC1 EMax [3],Compound,Emax [1]
-95%,-79%,–,–,–,–,–,–,CCC[C@H](NC(=O)[C@H](CCC(N)=O)NC(=O)[C@H](CCCCN)NC(=O)[C@H](CCCNC(=N)N)NC(=O)[C@H](Cc1ccc(O)cc1)NC(=O)[C@H](CCCNC(=N)N)NC(=O)[C@H](CO)NC(=O)[C@H](Cc1ccc(O)cc1)NC(=O)[C@H](CO)NC(=O)[C@H](CC(=O)O)NC(=O)[C@@H](NC(=O)[C@H](Cc1ccccc1)NC(=O)[C@@H](NC(=O)CNC(=O)[C@H](CC(=O)O)NC(=O)[C@@H](CO)NC(=O)[C@@H](N)Cc1c[nH]cn1)[C@@H](C)CC)[C@@H](C)O)C(=O)N[C@@H](C)C(=O)N[C@H](C(=O)N[C@@H](CCCCN)C(=O)N[C@@H](CCCCN)C(=O)N[C@@H](Cc1ccc(O)cc1)C(=O)N[C@@H](CC(C)C)C(=O)N[C@@H](C)C(=O)N[C@@H](C)C(=O)N[C@@H](CC(C)C)C(=O)N[C@@H](CO[C@@H]1O[C@H](CO)[C@@H](O)[C@H](O)[C@H]1O)C(=O)N[C@@H](CC(C)C)C(N)=O)C(C)C [CRA3002] (H-H[dS]DGIFTDSYSRYRKQ[Nva]AVKKYLAALS(βGlc)L-NH2),93%
–,–,–,–,–,–,–,–,CCC[C@H](NC(=O)[C@H](CCC(N)=O)NC(=O)[C@H](CCCCN)NC(=O)[C@H](CCCNC(=N)N)NC(=O)[C@H](Cc1ccc(O)cc1)NC(=O)[C@H](CCCNC(=N)N)NC(=O)[C@H](CO)NC(=O)[C@H](Cc1ccc(O)cc1)NC(=O)[C@H](CO)NC(=O)[C@H](CC(=O)O)NC(=O)[C@H](C)NC(=O)[C@H](Cc1ccccc1)NC(=O)[C@@H](NC(=O)CNC(=O)[C@H](CC(=O)O)NC(=O)[C@@H](CO)NC(=O)[C@@H](N)Cc1c[nH]cn1)[C@@H](C)CC)C(=O)N[C@@H](C)C(=O)N[C@H](C(=O)N[C@@H](CCCCN)C(=O)N[C@@H](CCCCN)C(=O)N[C@@H](Cc1ccc(O)cc1)C(=O)N[C@@H](CC(C)C)C(=O)N[C@@H](C)C(=O)N[C@@H](C)C(=O)N[C@H](C(=O)N[C@@H](CO[C@@H]1O[C@H](CO)[C@@H](O)[C@H](O)[C@H]1O)C(=O)N[C@@H](CC(C)C)C(N)=O)C(C)C)C(C)C [CRA3005] (H-H[dS]DGIFADSYSRYRKQ[Nva]AVKKYLAAVS(βGlc)L-NH2),78%
–,–,0.52 nM,93%,55.6 nM,91%,0.84 nM,92%,HSDGIFTDSYSRYRKQLAVKKYLAAVd8L-Ser(Cell) [2ls98Cell],–
–,–,0.45 nM,101%,193 nM,100%,0.72 nM,93%,HSDGIFTDSYSRYRKQLAVd8KKYLAAVd8L-Ser(Lact) [2ls98Lact],–

Compound,Emax [2],Emax [3],EC50 [1],VPAC1 EMax [1],EC50 [2],VPAC2 EMax [2],EC50 [3],PAC1 EMax [3],Emax [1]
CCC[C@H](NC(=O)[C@H](CCC(N)=O)NC(=O)[C@H](CCCCN)NC(=O)[C@H](CCCNC(=N)N)NC(=O)[C@H](Cc1ccc(O)cc1)NC(=O)[C@H](CCCNC(=N)N)NC(=O)[C@H](CO)NC(=O)[C@H](Cc1ccc(O)cc1)NC(=O)[C@H](CO)NC(=O)[C@H](CC(=O)O)NC(=O)[C@H](C)NC(=O)[C@H](Cc1ccccc1)NC(=O)[C@@H](NC(=O)CNC(=O)[C@H](CC(=O)O)NC(=O)[C@@H](CO)NC(=O)[C@@H](N)Cc1c[nH]cn1)[C@@H](C)CC)C(=O)N[C@@H](C)C(=O)N[C@H](C(=O)N[C@@H](CCCCN)C(=O)N[C@@H](CCCCN)C(=O)N[C@@H](Cc1ccc(O)cc1)C(=O)N[C@@H](CC(C)C)C(=O)N[C@@H](C)C(=O)N[C@@H](C)C(=O)N[C@H](C(=O)N[C@@H](CO[C@@H]1O[C@H](CO)[C@@H](O)[C@H](O)[C@H]1O)C(N)=O)C(C)C)C(C)C [CRA3004] (H-H[dS]DGIFADSYSRYRKQ[Nva]AVKKYLAAVS(βGlc)-NH2),–,–,1370 nM,–,–,–,–,–,85%

# Reference: patent US20220380431A1, “GLYCOPEPTIDE ANALOGS OF SECRETIN FAMILY PEPTIDES” (ARIZONA BOARD OF REGENTS ON BEHALF OF THE UNIVERSITY OF …, priority 2017, published 2022)
